20 compounds from patent US20240043435A1, “TYK-2 INHIBITOR” (BEIGENE, LTD., priority 2020, published 2024) can be followed below.

The test system of test [1] is JAK2, TYK2/p-STAT4 (Tyr693) activated by IL-12 in NK-92 cell line. In words: IL-12-JAK2, TYK2/p-STAT4 (Tyr693) inhibition IC50 cellular assay. It is filed as cell-based. The following applies: for Selectivity fold (TYK2/JAK2): Cellular assay, pSTAT5/GM-CSF IC50 vs pSTAT4/IL-12 IC50; for IC50: NK92, Cellular assay, read-out: pSTAT4/IL-12 IC50. The method, boiled down: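 p-STAT4 (Tyr693) in lysates was measured by AlphaLISA SureFire Ultra after a 30 min IL-12 challenge (40 ng/ml final) at 37° C. Overnight-starved, IL-2-free NK-92 cells had been pretreated 1 h with compound at 10000 to 0.61 nM (4-fold, 8 points). IC50 values came from four-parameter logistic fitting.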

The target of test [2] is T1, TYK2-JH2 (aa 575-869, in-house) protein (Homo sapiens, UniProt P29597).
T1 construct: TYK2-JH2 (aa 575-869, in-house) protein; made in house
Kind of test: TYK2-JH2 biochemical assay (HTRF probe displacement). The test is classed as binding. The following applies: Biochemical assay; read-out: TYK2-JH2 IC50. Summed up: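 HTRF probe-displacement format: compound dilutions (10 points, 5-fold, from 500 uM in DMSO at 500×) were combined with 0.2 nM TYK2-JH2 protein for 0.5 h at room temperature in HEPES pH 7.5 buffer with MgCl2, BSA, DTT and Brij-35. Percent inhibition came from the 615/665 nm fluorescence ratio, fitted to a four-parameter logistic for IC50.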

The subject of the next test is pSTAT5/GM-CSF. Kind of test: pSTAT5/GM-CSF cellular assay (JAK2 selectivity). It is filed as cell-based. Conditions: for Selectivity fold (TYK2/JAK2): pSTAT5/GM-CSF IC50 over pSTAT4/IL-12 IC50.

T1 sequence (P29597 575-869): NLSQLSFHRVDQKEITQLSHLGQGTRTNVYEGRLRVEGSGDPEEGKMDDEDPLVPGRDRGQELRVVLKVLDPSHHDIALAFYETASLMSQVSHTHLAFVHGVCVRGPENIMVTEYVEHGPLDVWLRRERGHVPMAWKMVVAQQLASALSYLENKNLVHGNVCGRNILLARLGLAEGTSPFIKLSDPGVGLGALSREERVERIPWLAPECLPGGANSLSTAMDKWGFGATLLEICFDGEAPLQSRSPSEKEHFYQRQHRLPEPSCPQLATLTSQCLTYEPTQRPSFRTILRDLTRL

As for `CC(=O)Nc1cc(Nc2cc(OCC(C)O)cc(S(C)(=O)=O)n2)c(-c2ccc(C(C)(C)O)cn2)cn1` (centres unmarked) [Example H26, N-(5-(2-hydroxypropan-2-yl)-4′-((4-(2-hydroxypropoxy)-6-(methylsulfonyl)pyridin-2-yl)amino)-[2,3′-bipyridin]-6′-yl)acetamide], in test [1], the “Selectivity fold (TYK2/JAK2)” value is reported as above 854 fold. In addition, the IC50 is 11.7 nM in test [1], 0.039 nM in test [2] and above 10000 nM in the test with pSTAT5/GM-CSF.

Regarding `CC(=O)Nc1cc(Nc2cc(OC3COC3)cc(S(C)(=O)=O)n2)c(-c2ccc(C(C)(C)O)cn2)cn1` [Example H27, N-(5-(2-hydroxypropan-2-yl)-4′-((6-(methylsulfonyl)-4-(oxetan-3-yloxy)pyridin-2-yl)amino)-[2,3′-bipyridin]-6′-yl)acetamide], the “Selectivity fold (TYK2/JAK2)” value in test [1] is listed as above 3676 fold. Further, the IC50 in test [1] is 2.72 nM; in test [2] it was 0.031 nM; in the test with pSTAT5/GM-CSF, above 10000 nM.

With `CC(=O)Nc1cc(Nc2cc(O[C@H]3C[C@@H](O)C3)cc(S(C)(=O)=O)n2)c(-c2ccc(C(C)(C)O)cn2)cn1` [Example H28, N-(4′-((4-(cis-3-hydroxycyclobutoxy)-6-(methylsulfonyl)pyridin-2-yl)amino)-5-(2-hydroxypropan-2-yl)-[2,3′-bipyridin]-6′-yl)acetamide], in test [1], the “Selectivity fold (TYK2/JAK2)” value was above 342 fold. Also, the IC50 in test [1] was 29.2 nM; in test [2], 0.03 nM; in the test with pSTAT5/GM-CSF, above 10000 nM.

Regarding `COC1CC(Oc2cc(Nc3cc(NC(C)=O)ncc3-c3ccc(C(C)(C)O)cn3)nc(S(C)(=O)=O)c2)C1` (centres unmarked) [Example H29, N-(5-(2-hydroxypropan-2-yl)-4′-((4-(3-methoxycyclobutoxy)-6-(methylsulfonyl)pyridin-2-yl)amino)-[2,3′-bipyridin]-6′-yl)acetamide], the “Selectivity fold (TYK2/JAK2)” value in test [1] is reported as 4797 fold. The IC50 in test [1] stood at 1.77 nM; in test [2] it was 0.022 nM; with pSTAT5/GM-CSF it was 8490 nM.

On to `CC(=O)Nc1cc(Nc2cc(OCC3CC3)cc(S(C)(=O)=O)n2)c(-c2ccc(C(C)(C)O)cn2)cn1` [Example H30, N-(4′-((4-(cyclopropylmethoxy)-6-(methylsulfonyl)pyridin-2-yl)amino)-5-(2-hydroxypropan-2-yl)-[2,3′-bipyridin]-6′-yl)acetamide], for which the “Selectivity fold (TYK2/JAK2)” value in test [1] is on record as above 10288 fold. Further, the IC50 in test [1] was 0.972 nM; in test [2], 0.023 nM; in the test with pSTAT5/GM-CSF, above 10000 nM.

For the compound `CC(=O)Nc1cc(Nc2cc(OC3CCC3)cc(S(C)(=O)=O)n2)c(-c2ccc(C(C)(C)O)cn2)cn1` [Example H31, N-(4′-((4-cyclobutoxy-6-(methylsulfonyl)pyridin-2-yl)amino)-5-(2-hydroxypropan-2-yl)-[2,3′-bipyridin]-6′-yl)acetamide], the “Selectivity fold (TYK2/JAK2)” value in test [1] is reported as above 10695 fold. For the same compound, the values for the IC50 (in test [1]; in test [2]; in the test on pSTAT5/GM-CSF) were 0.935 nM, 0.023 nM and above 10000 nM, respectively.

For `CC(=O)Nc1cc(Nc2nc(S(C)(=O)=O)ccc2C)c(-c2ccc(C(C)(C)O)cn2)cn1` [Example H32, N-(5-(2-hydroxypropan-2-yl)-4′-((3-methyl-6-(methylsulfonyl)pyridin-2-yl)amino)-[2,3′-bipyridin]-6′-yl)acetamide], the “Selectivity fold (TYK2/JAK2)” value in test [1] is listed as above 22371 fold. Moreover, the IC50 in test [1] was 0.447 nM; in test [2], 0.023 nM; in the test with pSTAT5/GM-CSF it was above 10000 nM.

Take `CCOc1cc(Nc2cc(NC(C)=O)ncc2-c2ccc(C(C)(C)O)cn2)nc(S(C)(=O)=O)c1` [Example H33, N-(4′-((4-ethoxy-6-(methylsulfonyl)pyridin-2-yl)amino)-5-(2-hydroxypropan-2-yl)-[2,3′-bipyridin]-6′-yl)acetamide]: the “Selectivity fold (TYK2/JAK2)” value in test [1] is recorded as above 22371 fold. In addition, the figures for the IC50 (in test [1]; in test [2]; in the test on pSTAT5/GM-CSF) were 0.777 nM, 0.019 nM and above 10000 nM, respectively.

Turning to `CC(=O)Nc1cc(Nc2ccc(F)c(S(C)(=O)=O)n2)c(-c2ccc(C(C)(C)O)cn2)cn1` [Example H34, N-(4′-((5-fluoro-6-(methylsulfonyl)pyridin-2-yl)amino)-5-(2-hydroxypropan-2-yl)-[2,3′-bipyridin]-6′-yl)acetamide], the “Selectivity fold (TYK2/JAK2)” value in test [1] is on record as above 8928 fold. Also, the IC50 in test [1] was 1.12 nM; in test [2] it was 0.023 nM; in the test with pSTAT5/GM-CSF, above 10000 nM.

Consider `CC(=O)Nc1cc(Nc2cc(S(C)(=O)=O)ccc2C)c(-c2ccc(C(C)(C)O)cn2)cn1` [Example H35, N-(5-(2-hydroxypropan-2-yl)-4′-((2-methyl-5-(methylsulfonyl)phenyl)amino)-[2,3′-bipyridin]-6′-yl)acetamide], for which the “Selectivity fold (TYK2/JAK2)” value in test [1] is recorded as above 3154 fold. Besides, the IC50 in test [1] is 3.17 nM; in test [2] it was 0.028 nM; in the test with pSTAT5/GM-CSF, above 10000 nM.

Take `CCS(=O)(=O)c1cc(OC(C)C)cc(Nc2cc(NC(C)=O)ncc2-c2ccc(C(C)(C)O)cn2)n1` [Example H36, N-(4′-((6-(ethylsulfonyl)-4-isopropoxypyridin-2-yl)amino)-5-(2-hydroxypropan-2-yl)-[2,3′-bipyridin]-6′-yl)acetamide]: in test [1], the “Selectivity fold (TYK2/JAK2)” value is reported as above 5128 fold. The values for the IC50 (in test [1]; in test [2]; with pSTAT5/GM-CSF) were 1.95 nM, 0.022 nM and above 10000 nM, respectively.

Regarding `CC(=O)Nc1cc(Nc2cc(OC(C)C)cc(S(C)(=O)=O)n2)c(-c2ccn(C)n2)cn1` [Example J2, N-(4-((4-isopropoxy-6-(methylsulfonyl)pyridin-2-yl)amino)-5-(1-methyl-1H-pyrazol-3-yl)pyridin-2-yl)acetamide], the IC50 in test [1] is 3 nM; in test [2] it was 0.022 nM; in the test with pSTAT5/GM-CSF, above 10000 nM. Further, in the test with pSTAT5/GM-CSF, the “Selectivity fold (TYK2/JAK2)” value was above 3333 fold.

Regarding `CC(=O)Nc1cc(Nc2cc(OCC3CC3)cc(S(C)(=O)=O)n2)c(-c2ccn(C)n2)cn1` [Example J3, N-(4-((4-(cyclopropylmethoxy)-6-(methylsulfonyl)pyridin-2-yl)amino)-5-(1-methyl-1H-pyrazol-3-yl)pyridin-2-yl)acetamide], the IC50 was 0.286 nM in test [1], 0.026 nM in test [2] and above 10000 nM in the test with pSTAT5/GM-CSF. Moreover, in the test on pSTAT5/GM-CSF, the “Selectivity fold (TYK2/JAK2)” value is listed as above 34965 fold.

With `CC(=O)Nc1cc(Nc2cccc(S(N)(=O)=O)n2)c(-c2ccn(C)n2)cn1` [Example J4, N-(5-(1-methyl-1H-pyrazol-3-yl)-4-((6-sulfamoylpyridin-2-yl)amino)pyridin-2-yl)acetamide], the IC50 in test [1] was 4.94 nM; in test [2], 0.028 nM; in the test with pSTAT5/GM-CSF it was above 10000 nM. Also, the “Selectivity fold (TYK2/JAK2)” value in the test on pSTAT5/GM-CSF is reported as above 2024 fold.

Consider `CCS(=O)(=O)c1cccc(Nc2cc(NC(C)=O)ncc2-c2ccn(C)n2)n1` [Example J5, N-(4-((6-(ethylsulfonyl)pyridin-2-yl)amino)-5-(1-methyl-1H-pyrazol-3-yl)pyridin-2-yl)acetamide], for which the IC50 was 2.05 nM in test [1], 0.022 nM in test [2] and above 10000 nM in the test with pSTAT5/GM-CSF. In addition, in the test on pSTAT5/GM-CSF, the “Selectivity fold (TYK2/JAK2)” value is reported as above 4878 fold.

`CC(=O)Nc1cc(Nc2cccc(S(C)(=O)=O)c2)c(-c2ccn(C)n2)cn1` [Example J6, N-(5-(1-methyl-1H-pyrazol-3-yl)-4-((3-(methylsulfonyl)phenyl)amino)pyridin-2-yl)acetamide]: the results for the IC50 (in test [1]; in test [2]; in the test with pSTAT5/GM-CSF) were 7.94 nM, 0.033 nM and above 10000 nM, respectively. Also, the “Selectivity fold (TYK2/JAK2)” value with pSTAT5/GM-CSF was above 1259 fold.

In the case of `CC(=O)Nc1cc(Nc2cc(C#N)cc(S(C)(=O)=O)c2)c(-c2ccn(C)n2)cn1` [Example J7, N-(4-((3-cyano-5-(methylsulfonyl)phenyl)amino)-5-(1-methyl-1H-pyrazol-3-yl)pyridin-2-yl)acetamide], the IC50 in test [1] was 66.2 nM; in test [2], 0.19 nM; in the test with pSTAT5/GM-CSF, above 10000 nM. Further, the “Selectivity fold (TYK2/JAK2)” value in the test with pSTAT5/GM-CSF is on record as above 150 fold.

As to `CC(=O)Nc1cc(Nc2cc(C)cc(S(C)(=O)=O)c2)c(-c2ccn(C)n2)cn1` [Example J8, N-(5-(1-methyl-1H-pyrazol-3-yl)-4-((3-methyl-5-(methylsulfonyl)phenyl)amino)pyridin-2-yl)acetamide], the figures for the IC50 (in test [1]; in test [2]; in the test with pSTAT5/GM-CSF) were 7.67 nM, 0.073 nM and above 10000 nM, respectively. In addition, the “Selectivity fold (TYK2/JAK2)” value in the test on pSTAT5/GM-CSF is listed as above 1303 fold.

Take `COc1cc(Nc2cc(NC(C)=O)ncc2-c2ccn(C)n2)cc(S(C)(=O)=O)c1` [Example J9, N-(4-((3-methoxy-5-(methylsulfonyl)phenyl)amino)-5-(1-methyl-1H-pyrazol-3-yl)pyridin-2-yl)acetamide]: the IC50 is 6.54 nM in test [1], 0.083 nM in test [2] and above 10000 nM in the test on pSTAT5/GM-CSF. Besides, the “Selectivity fold (TYK2/JAK2)” value in the test with pSTAT5/GM-CSF is listed as above 1529 fold.

In the case of `CC(=O)Nc1cc(Nc2cc(OC(F)(F)F)cc(S(C)(=O)=O)c2)c(-c2ccn(C)n2)cn1` [Example J10, N-(5-(1-methyl-1H-pyrazol-3-yl)-4-((3-(methylsulfonyl)-5-(trifluoromethoxy)phe-nyl)amino)pyridin-2-yl)acetamide], the IC50 in test [1] was 6.34 nM; in test [2], 0.05 nM; with pSTAT5/GM-CSF it was above 10000 nM. In addition, the “Selectivity fold (TYK2/JAK2)” value in the test on pSTAT5/GM-CSF is above 1577 fold.
